Each block holds one molecule with its values, some of them ahead of it.
Experiments:
[1] = tested on: RPE1 cells; experiment: Mitochondrial membrane potential and ATP levels in RPE1 cells lacking DIESL cultured without lipoproteins; format: cell-based
Experimental: For BODIPY 493/503 measurements in fixed HAP1 cells, HAP1 cells, grown in 10 cm plates, were collected by trypsinization and were fixed in Fix Buffer I (BD Biosciences) for 10 minutes at 37° C. Cells were pelleted, washed with FACS buffer (10% FBS in PBS), resuspended in FACS buffer and counted. 10 million cells were stained with 1 μg/ml BODIPY 493/503 and 5 μg/ml DAPI (Invitrogen), diluted in FACS buffer, for one hour at room temperature. Cells were washed once in FACS buffer, then passed through a 35 μm nylon mesh cell strainer into a FACS tube. Fluorescence was analyzed on an LSR Fortessa (BD Biosciences) analytical flow cytometer, using 405 and 488 nm lasers to detect DAPI and BODIPY 493/503, respectively. Data were analyzed using FlowJo (BD Life Sciences). Fluorescence plots represent the fluorescent signal measured in single haploid G1 cells, as determined by DAPI fluorescence intensity. […] Fluorescence (using a 561 nm laser) and data were analyzed as above. Fluorescence plots represent the fluorescent signal measured in single cells. Membrane potential was calculated by subtracting the fluorescence mean of depolarized (CCCP-treated) cells. RPE1 cells were plated in 96-well plates and ATP levels were measured using CellTitre-Glo (Promega) according to the manufacturer's instructions. […]

[2] = biological target: T1, 3xHA-tagged DIESL (human TMEM68, DGAT1/2-Independent Enzyme Synthesizing Storage Lipids) (human, UniProt Q96MH6 1-324, N-glycosylation at its N-terminus (N-X-S/T motif; N5Q mutant served as negative control)); experiment: summary of the examples (crosslinking and co-immunoprecipitation)
T1 construct: It is an ER membrane protein and was assayed in cells or cell lysates; also called 3xHA-DIESL; transmembrane protein 68; not shown: the N-terminal position is inferred only from the name 3xH
T1 sequence: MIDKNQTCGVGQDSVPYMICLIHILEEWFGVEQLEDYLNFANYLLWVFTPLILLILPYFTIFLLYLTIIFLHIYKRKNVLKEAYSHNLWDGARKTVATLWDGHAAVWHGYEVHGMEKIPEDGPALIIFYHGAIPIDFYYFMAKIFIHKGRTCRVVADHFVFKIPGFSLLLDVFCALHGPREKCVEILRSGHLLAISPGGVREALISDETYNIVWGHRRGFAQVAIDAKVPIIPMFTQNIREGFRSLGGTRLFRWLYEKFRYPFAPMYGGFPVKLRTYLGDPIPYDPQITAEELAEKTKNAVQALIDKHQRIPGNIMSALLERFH
Experimental: HAP1 ΔDIESL and ATMX1ΔDIESL cells reconstituted with 3xHA-DIESL, or HeLa WT cells expressing 3xHA-DIESL, were washed with PBS and incubated in 1% paraformaldehyde for 20 minutes at room temperature. Cross-linking reactions were quenched by incubation in 0.2 M glycine for 10 minutes. Cells were then lysed in RIPA buffer on ice as described above, sonicated and protein concentrations were determined. Samples were separated by SDS-PAGE and immunoblotted as described above.
HAP1 ΔDIESL cells reconstituted with 3xHA-DIESL, grown to confluence in a 6-well plate, were lysed in 400 μl IP buffer (25 mM HEPES PH 7.0, 150 mM NaCl, 1% detergent [Tween-20 unless otherwise indicated], and protease/phosphatase inhibitor cocktails) on ice, sonicated and cleared by centrifugation. 250 μl of lysate was incubated with 10 μl of PBS-washed anti-HA magnetic beads (Pierce) overnight while rotating at 4° C. The following day, beads were washed three times in IP buffer before elution in SDS-PAGE sample buffer at 90° C. for 20 minutes. One-quarter of this eluate (along with the corresponding amount of input sample) were separated by SDS-PAGE and subjected to immunoblot analysis as above.

Molecule: CCOC(=O)[C@@]1(CCCCCCOc2ccc(Cl)cc2)CO1 [etomoxir]
Effect of CPT1A inhibition on the oleic acid rescue ([1]; DIESL-deficient RPE1 cells without lipoproteins plus oleic acid, data not shown): sensitive

Molecule: CCCCCCCC/C=C\CCCCCCCC(=O)O [oleic acid]
Rescue of decreased mitochondrial membrane potential and ATP levels ([1]; DIESL-deficient RPE1 cells, lipoprotein-deficient medium supplemented with 50 µM oleic acid for 24 hours, FIG. 19F): rescued

binding result [2]: binds
B1: Thioredoxin related transmembrane protein 1 (TMX1), human, endogenous in HAP1 / HeLa cells (enzyme)
chain: RRSNVRVITDENWRELLEGDWMIEFYAPWCPACQNLQPEWESFAEWGEDLEVNIAKVDVTEQPGLSGRFIITALPTIYHCKDGEFRRYQGPRTKKDFINFISDKEWKSIEPVSSWFGPGSVLMSSMSALFQLSMWIRTCHNYFIEDLGLPVWGSYTVFALATLFSGLLLGLCMIFVADCLCPSKRRRPQPYPYPSKKLLSESAQPLKKVEEEQEADEEDVSEEEAESKEGTNKDFPQNAIRQRSLGPSLATDKS
notes: Endogenous TMX1 of human cell lines (HAP1, HeLa), an ER membrane protein, detected with anti-TMX1 antibodies; also called transmembrane thioredoxin 1; TMX1 polypeptide
